ChEMBL document CHEMBL4425156, “The evolution of P2X7 antagonists with a focus on CNS indications” (Bioorg Med Chem Lett, 2016)

Tests used:
[1] = target: Cytochrome P450 3A4 (Homo sapiens, UniProt P08684); test: Inhibition of CYP3A4 (unknown origin); assay type: ADME
[2] = Cmax in dog at 2.5 mg/kg, po; assay type: ADME, organism-based, Canis lupus familiaris; design: dose 2.5 mg/kg, route oral; conditions: in vivo
[3] = Oral bioavailability in dog at 2.5 mg/kg; assay type: ADME, organism-based, Canis lupus familiaris; conditions: in vivo
[4] = test system: Rattus norvegicus; test: Ex vivo inhibition of P2X7 in po dosed rat measured after 1 to 2 hrs by ARG assay; assay type: functional, organism-based
[5] = target: T1, P2X purinoceptor 7 (Homo sapiens, UniProt Q99572); test: Antagonist activity at human recombinant P2X7 receptor expressed in HEK293 cells assessed as inhibition of ATP-induced calcium mobilization incubated for 90 mins in presence of ATP by YO-PRO-1 dye based tetra FLIPR assay; assay type: cell-based
T1 sequence (Q99572 whole entry): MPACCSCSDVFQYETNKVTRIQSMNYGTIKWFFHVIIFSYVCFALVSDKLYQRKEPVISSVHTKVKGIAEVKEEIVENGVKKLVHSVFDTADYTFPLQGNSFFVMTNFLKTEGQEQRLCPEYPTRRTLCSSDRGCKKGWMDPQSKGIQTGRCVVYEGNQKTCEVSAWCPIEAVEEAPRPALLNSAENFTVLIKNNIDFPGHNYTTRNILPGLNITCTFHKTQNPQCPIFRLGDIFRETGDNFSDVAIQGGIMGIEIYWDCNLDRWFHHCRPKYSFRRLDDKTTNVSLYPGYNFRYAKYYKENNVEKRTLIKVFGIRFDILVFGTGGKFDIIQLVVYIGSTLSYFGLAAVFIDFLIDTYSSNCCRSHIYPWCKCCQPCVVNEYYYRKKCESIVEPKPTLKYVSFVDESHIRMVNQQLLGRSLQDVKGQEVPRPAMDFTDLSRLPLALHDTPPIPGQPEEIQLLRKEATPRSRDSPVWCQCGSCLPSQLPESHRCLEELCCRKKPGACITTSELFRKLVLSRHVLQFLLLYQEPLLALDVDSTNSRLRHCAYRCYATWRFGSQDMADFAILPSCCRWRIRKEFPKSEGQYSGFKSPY

[6] = target: T2, P2X purinoceptor 7 (Rattus norvegicus, UniProt Q64663); test: Antagonist activity at rat P2X7 receptor expressed in 1321N1 cells assessed as inhibition of BzATP-induced calcium mobilization incubated for 30 mins measured after 180 seconds by calcium-4 dye based FLIPR assay; assay type: cell-based
T2 sequence (Q64663 whole entry): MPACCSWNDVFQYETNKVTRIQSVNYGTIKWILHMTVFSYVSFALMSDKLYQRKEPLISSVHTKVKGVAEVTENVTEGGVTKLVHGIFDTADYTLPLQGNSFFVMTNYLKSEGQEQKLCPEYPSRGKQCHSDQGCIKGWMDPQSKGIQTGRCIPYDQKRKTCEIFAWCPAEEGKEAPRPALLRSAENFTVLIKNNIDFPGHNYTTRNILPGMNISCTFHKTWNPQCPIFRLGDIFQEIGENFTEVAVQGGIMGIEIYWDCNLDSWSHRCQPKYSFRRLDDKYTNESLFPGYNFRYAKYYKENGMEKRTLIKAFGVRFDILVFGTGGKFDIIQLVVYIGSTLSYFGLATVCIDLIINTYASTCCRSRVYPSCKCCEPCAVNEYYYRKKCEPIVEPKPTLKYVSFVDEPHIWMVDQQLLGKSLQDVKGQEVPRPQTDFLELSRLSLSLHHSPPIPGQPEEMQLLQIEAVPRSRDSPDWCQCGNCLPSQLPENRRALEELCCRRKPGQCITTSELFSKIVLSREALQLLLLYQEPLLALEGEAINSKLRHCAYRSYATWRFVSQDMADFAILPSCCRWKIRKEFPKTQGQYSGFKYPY

[7] = Efflux ratio of apparent permeability from basolateral to apical over apical to basolateral side in human Caco2 cells at 10 uM after 40 to 60 mins by LC-MS/MS analysis; assay type: ADME, cell-based; conditions: Caco-2
[8] = target: T1, P2X purinoceptor 7; test: Antagonist activity at human recombinant P2X7 receptor expressed in 1321N1 cells assessed as inhibition of BzATP-induced calcium mobilization incubated for 30 mins measured after 180 seconds by calcium-4 dye based FLIPR assay; assay type: cell-based
[9] = target: T1, P2X purinoceptor 7; test: Antagonist activity at human P2X7 receptor expressed in HEK293 cells assessed as inhibition of BzATP-induced calcium mobilization monitored for 5 mins followed by stimulation with BzATP measured after 3 mins by Fluo-8 NW dye based tetra FLIPR assay; assay type: cell-based
[10] = Fraction unbound in human plasma; assay type: ADME, cell-free
[11] = target: T1, P2X purinoceptor 7; test: Antagonist activity at human P2X7 receptor expressed in HEK293 cells assessed as inhibition of BzATP-induced calcium mobilization incubated for 30 mins by Fluo-4 NW dye based tetra FLIPR assay; assay type: cell-based
[12] = Fraction unbound in rat plasma; assay type: ADME, cell-free
[13] = target: T1, P2X purinoceptor 7; test: Antagonist activity at human P2X7 receptor expressed in THP1 cells assessed as inhibition of BzATP-induced IL-1beta release preincubated for 20 mins followed by stimulation with BzATP for 30 mins by sandwich ELISA; assay type: cell-based
[14] = target: T1, P2X purinoceptor 7; test: Antagonist activity at human P2X7 receptor expressed in HEK293 cells assessed as inhibition of BzATP-induced pore formation incubated for 20 mins followed by stimulation with BzATP for 30 mins by YO-PRO dye based fluorescence plate reader method; assay type: cell-based
[15] = Oral bioavailability in rat at 10 mg/kg; assay type: ADME, organism-based; conditions: in vivo
[16] = test system: Rattus norvegicus; test: Ex vivo receptor occupancy at P2X7 receptor in rat at 10 mg/kg, po; assay type: functional
[17] = Ratio of drug level in brain to plasma in rat at 10 mg/kg, po; assay type: ADME, organism-based; conditions: read-out: BPR

Chain of Cytochrome P450 3A4 (P08684 whole entry): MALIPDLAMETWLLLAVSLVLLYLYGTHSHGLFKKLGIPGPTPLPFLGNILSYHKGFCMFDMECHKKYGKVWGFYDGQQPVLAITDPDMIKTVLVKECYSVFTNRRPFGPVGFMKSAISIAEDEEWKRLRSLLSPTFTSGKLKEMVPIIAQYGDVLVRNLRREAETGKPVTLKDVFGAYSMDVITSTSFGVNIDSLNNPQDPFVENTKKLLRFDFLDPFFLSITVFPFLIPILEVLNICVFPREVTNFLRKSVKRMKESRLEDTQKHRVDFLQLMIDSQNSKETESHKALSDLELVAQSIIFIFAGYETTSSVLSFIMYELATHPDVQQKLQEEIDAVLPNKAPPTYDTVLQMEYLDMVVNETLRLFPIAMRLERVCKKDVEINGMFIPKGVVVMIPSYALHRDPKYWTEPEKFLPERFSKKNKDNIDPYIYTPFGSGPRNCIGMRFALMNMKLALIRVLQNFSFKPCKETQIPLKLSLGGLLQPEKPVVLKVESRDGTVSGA

Row | Structure (SMILES) | IC50 [6] [µM] | efflux ratio at 10 µM [7] | IC50 [8] [µM] | also measured
1 | Cc1nc2c(c(-c3ccn[nH]3)n1)C[C@@H](C)N(C(=O)c1cccc(C(F)(F)F)c1Cl)C2 | – | – | – | IC50 [1]: 3.3 µM; Cmax [2]: 571 nM; bioavailability [3]: 35%; EC50 [4]: 0.008 µM
2 | O=C(NCC1(c2ccc(Cl)nc2)CCCCC1)c1c(Cl)ccc2[nH]ccc12 | – | – | – | IC50 [5]: 0.0032 µM
3 | O=C(c1cccc(C(F)(F)F)c1Cl)N1CCn2c(C3CC3)nnc2[C@H]1c1ccccc1 | 0.017 | 3.33 | 0.0069 | –
4 | O=C(NCC1(c2ccc(Cl)nc2)CCCCC1)C1CCCc2[nH]ccc21 (stereo not drawn) | – | – | – | IC50 [5]: 0.0034 µM
5 | O=C(NCC(CC1(C(F)F)CC1)c1ccc(C2CC2)nc1)c1cccc(Cl)c1Cl (stereo not drawn) | – | – | – | IC50 [9]: 0.00079 µM
6 | Cc1ncc(C(CNC(=O)c2cc(-c3ncc(F)cn3)ccc2Cl)N2CCCC(F)(F)C2)s1 (stereo not drawn) | – | – | – | IC50 [11]: 0.022 µM
7 | O=C(NCC(c1cnc(C(F)(F)F)nc1)N1CCOCC1)c1c(Cl)ccc2[nH]ccc12 (stereo not drawn) | – | – | – | IC50 [5]: 0.0039 µM
8 | C[C@H]1CC[C@@](O)(CNC(=O)c2cc(C3CCOC3)n3cccc(Cl)c23)CC1 (stereo partly drawn) | – | – | – | IC50 [13]: < 0.01 µM; IC50 [14]: < 0.01 µM
9 | CN(C)C(=O)CCNc1ccc2c(C(=O)NCC3CCC(F)(F)CC3)c(Cl)ccc2n1 | – | – | – | IC50 [13]: < 0.01 µM; IC50 [14]: < 0.01 µM
10 | O=C(c1cccc(C(F)(F)F)c1Cl)N1CCn2c(nnc2C(F)(F)F)[C@H]1c1ccccc1 | 0.042 | 0.75 | 0.0087 | bioavailability [15]: 78%; Occ [16]: >80%; Kp [17]: 0.5

Further lines, with some results ahead:

Row | IC50 [6] [µM] | efflux ratio at 10 µM [7] | IC50 [8] [µM] | Structure (SMILES) | also measured
11 | 0.027 | 5.1 | 0.0027 | Cc1nnc2n1CCN(C(=O)c1cccc(C(F)(F)F)c1Cl)[C@@H]2c1ccccc1 | –
12 | – | – | 0.019 | Cc1nc2c(c(-c3ccn[nH]3)n1)C[C@@H](C)N(C(=O)c1ccc(Cl)cc1F)C2 | IC50 [1]: > 10 µM; EC50 [4]: 0.1 µM
13 | – | – | 0.24 | Cc1nc2c(c(-c3ccccc3)n1)CCN(C(=O)c1cccc(C(F)(F)F)c1Cl)C2 | fraction unbound [10]: 0.032
14 | 1.14 | – | 0.0085 | Cc1nc2c(c(-c3ccn[nH]3)n1)CCN(C(=O)c1cccc(C(F)(F)F)c1Cl)C2 | fraction unbound [12]: 0.074
15 | 0.02 | 1.22 | 0.0085 | CCCCc1nnc2n1CCN(C(=O)c1cccc(C(F)(F)F)c1Cl)[C@@H]2c1ccccc1 | –
16 | – | 2 | 0.011 | CC(C)(C)c1nnc2n1CCN(C(=O)c1cccc(C(F)(F)F)c1Cl)[C@@H]2c1ccccc1 | –
17 | 0.064 | 4.5 | 0.0045 | O=C(c1cccc(C(F)(F)F)c1Cl)N1CCn2cnnc2[C@H]1c1ccccc1 | –
18 | – | 3.24 | 0.0024 | CCc1nnc2n1CCN(C(=O)c1cccc(C(F)(F)F)c1Cl)[C@@H]2c1ccccc1 | –
